These results are taken from publication PMC11476342 (Cancers, 2024).

For data set [1], the system named is J82 cisR. Put plainly: MTT cell viability assay. The data set is classed as cell-based, human. As for the experimental part:
(§1) The cell viability for determination of IC50 values and synergism studies was analyzed by MTT assay as previously described. […] For preincubation experiments, 1600 c/w (cells per well) for J82 and 1200 c/w for J82 cisR were used. After the incubation time, 25 µL MTT (3-(4,5-dimethylthiazol-2-yl)-2,5-diphenyltetrazolium bromide, Serva, Heidelberg, Germany) solution (5 mg/mL in phosphate-buffered saline) was added. The formazan was dissolved in 75 µL DMSO, and the absorption was measured at 540 nm and 690 nm with a microplate reader (ThermoFisher Multiskan, Thermo Scientific, Wesel, Germany).
On the technique in general: Formazan colour is commonly taken as a measure of viable cells.

The test system of data set [2] is T24. The data set is described as follows: MTT cell viability assay. It is filed as cell-based, human. As for the experimental part: as §1
Data set [3] has as its system J82. Put plainly: MTT cell viability assay. The data set is classed as cell-based, human. As for the experimental part:
as §1

For data set [4], the system named is T24 LTT. The data set is described as follows: MTT cell viability assay. The data set is classed as cell-based, human. Here is the method:
as §1

Data set [5] relates to HEK293. Put plainly: MTT cell viability assay, non-cancer cell line. The data set is classed as cell-based, human. As to conditions: for reduction of cell viability: entinostat and/or JQ1 in the absence of cisplatin (Figure 15b,c). As for the experimental part: as §1
Data set [6] has as its system HBLAK. The data set is described as follows: MTT cell viability assay, non-cancer cell line. The data set is classed as cell-based, human. As to conditions: for reduction of cell viability: entinostat and/or JQ1 in the absence of cisplatin (Figure 15a). Here is the method: as §1
Data set [7] concerns J82. Put plainly: RT-qPCR gene expression. The data set is classed as cell-based, human. To be noted: 48 h; ENT 0.316 µM; JQ1 1 µM; ENT + JQ1 0.316 + 1 µM. (In general: Real-time PCR tracks product formation cycle by cycle.)
Description: (§2) RNA was isolated using the RNeasy Mini Kit (Qiagen, Hilden, Germany). Subsequently, the RNA was transcribed into cDNA using the High-Capacity cDNA Reverse Transcription Kit (Thermo Scientific, Wesel, Germany). For an RT-PCR, GoTaq qPCR Master Mix (Promega, Fitchburg, WI, USA) and a CFX96 Real-Time System (BIO-RAD, Hercules, CA, USA) were used. The relative changes in gene expression were normalized to the control genes GUSB (beta-glucuronidase), TBP (TATA binding protein), and HPRT1 (hypoxanthine–guanine phosphoribosyltransferase) by Vandesompele method [54].
The conditions of data set [8]: cited from earlier work; for bioavailability: OTX015: oral, in contrast to JQ1; for half-life: in vivo, OTX015 in contrast to JQ1.
The subject of data set [9] is J82 cisR. The data set is described as follows: RT-qPCR gene expression. The data set is classed as cell-based, human. As to conditions: 48 h; ENT 0.316 µM; JQ1 0.1 µM; ENT + JQ1 0.316 + 0.1 µM.
Description: as §2
Details of data set [10]: method as in PMID 33723398, PMID 29733771, PMID 27063977, PMID 27063978, PMID 26341814. As to conditions: patients; cited from earlier work.
The mark [11] stands for this setting: 72 h co-incubation with 0.316 µM ENT.
The mark [12] stands for this setting: MTT, 72 h, compound alone, listed as cisplatin, read-out: IC50 ± SD.
[13] abbreviates: MTT, 72 h, compound alone, read-out: IC50 ± SD.
The mark [14] stands for this setting: read-out: Cisplatin IC50 ± SD, control: untreated 48 h, then cisplatin 72 h.
The mark [15] stands for this setting: read-out: Cisplatin IC50 ± SD, control: untreated 48 h, then cisplatin 72 h, listed as cisplatin.
[16] abbreviates: read-out: Cisplatin IC50 ± SD, control, then cisplatin 72 h.
Where [17] appears, read: 48 h preincubation with the other inhibitor (ENT after 0.1 µM JQ1; JQ1 after 0.316 µM ENT), then another 72 h.
Where [18] appears, read: 72 h co-incubation with the other epigenetic inhibitor: ENT with 0.1 µM JQ1, JQ1 with 0.316 µM ENT.
The mark [19] stands for this setting: Homo sapiens, 72 h, MTT, 72 h, compound alone, read-out: IC50 ± SD.
[20] abbreviates: Homo sapiens, control of the 48 h preincubation scheme, compound 72 h, read-out: IC50 ± SD.
[21] abbreviates: Homo sapiens, T-24, MTT, 72 h, compound alone, read-out: IC50 ± SD.
Setting [22] is: 48 h preincubation with the other inhibitor (ENT after 1 µM JQ1; JQ1 after 0.316 µM ENT), then another 72 h.
Where [23] appears, read: 72 h co-incubation with the other epigenetic inhibitor: ENT with 1 µM JQ1, JQ1 with 0.316 µM ENT.
[24] abbreviates: Homo sapiens, J82, 72 h, MTT, 72 h, compound alone, read-out: IC50 ± SD.
The mark [25] stands for this setting: Homo sapiens, J82, control of the 48 h preincubation scheme, compound 72 h, read-out: IC50 ± SD.
The mark [26] stands for this setting: Homo sapiens, MTT, 72 h, compound alone, read-out: IC50 ± SD.
Setting [27] is: Homo sapiens, HEK293, MTT, 72 h, compound alone, read-out: IC50 ± SD.

Values joined by “and” are separate entries in the source; they are usually repeats but may differ in a detail not shown here. Identical values can stand only once. Like-named read-outs stand apart in the source and are kept apart here.

The IC50 is the concentration needed to halve the response being measured. Take `N.N.[Cl][Pt][Cl]` [Cisplatin, cisplatin]: the SF is recorded as 0.98 in data set [1] (72 h co-incubation with 0.1 µM JQ1); 1.60 in data set [1] (setting [11]); 1.56 in [1] (72 h co-incubation with 0.316 µM ENT + 0.1 µM JQ1); 1.88 in data set [2] (72 h co-incubation with 0.3 µM JQ1); 1.02 in data set [2] (setting [11]); 1.54 in data set [2] (72 h co-incubation with 0.316 µM ENT + 0.3 µM JQ1). Besides, the SF amounted to 1.74 in data set [3] (setting [11]); 3.05 in data set [3] (72 h co-incubation with 0.316 µM ENT + 1 µM JQ1); 1.90 in data set [3] (72 h co-incubation with 1 µM JQ1); 1.71 in data set [4] (setting [11]); 1.55 in data set [4] (72 h co-incubation with 0.316 µM ENT + 0.075 µM JQ1). Also, the cisplatin-resistance factor came to 3.8 in data set [1] (J82 cisR vs J82) and 24 in data set [4] (T24 LTT vs T24). Also, the IC50 in [1] (setting [12]) is 6.17 ± 0.23 µM; in [1] (setting [13]), 7.16 ± 0.24 µM; in [1] (setting [14]), 8.49 µM and 7.8 µM; in data set [1] (setting [15]), 7.64 ± 0.38 µM; in [2] (setting [12]), 1.97 ± 0.06 µM; in data set [2] (setting [13]), 2.99 ± 0.12 µM. Moreover, the IC50 in data set [2] (setting [14]) was 4.15 ± 0.12 µM; in [2] (setting [15]), 3.23 ± 0.1 µM; in data set [3] (setting [12]), 2.49 ± 0.12 µM; in data set [3] (setting [13]), 1.87 ± 0.06 µM; in data set [3] (setting [14]) it was 2.16 µM and 3.02 µM; in [3] (setting [15]), 2.98 ± 0.21 µM. The IC50 in [4] (setting [12]) came out at 65.3 ± 4.17 µM; in [4] (setting [13]) it was 72.2 ± 3.57 µM; in [4] (setting [14]), 75 ± 2.85 µM; in [4] (setting [15]) it was 58.7 ± 2.6 µM; in [5] (setting [13]), 3.36 ± 0.09 µM; in data set [5] (setting [16]) it was 6.26 ± 0.21 µM. Besides, the values for the IC50 in data set [6] (setting [13]) and in [6] (setting [16]) were 1.71 ± 0.09 µM and 3.38 ± 0.18 µM, respectively.
`Cc1sc2c(c1C)C(c1ccc(Cl)cc1)=NC(CC(=O)OC(C)(C)C)c1nnc(C)n1-2` (centres unmarked) [JQ1]: the “Bim gene expression, decadic logarithm of normalized expression” value in data set [7] was 0.283; in [9] it was 0.534. Further, the “FOXO1 gene expression, decadic logarithm of normalized expression” value in data set [7] came out at 0.260; in data set [9] it was 0.410. In addition, the “FOXO3a gene expression, decadic logarithm of normalized expression” value is 0.128 in data set [7] and 0.438 in data set [9]. In addition, the “p21 gene expression, decadic logarithm of normalized expression” value in data set [7] is recorded as 0.654; in [9], 0.581. Also, the “p53 gene expression, decadic logarithm of normalized expression” value in data set [7] is given as -0.097; in data set [9], 0.347. For the same molecule, the “survivin gene expression, decadic logarithm of normalized expression” value in data set [7] was -0.002; in [9] it was 0.435. The SF in data set [1] (setting [17]) was 1.21; in [1] (setting [18]), 1.71; in [3] (setting [22]), 1.28; in data set [3] (setting [23]), 0.84. The IC50 was 2.64 ± 0.52 µM in [1] (setting [19]); 2.41 ± 0.51 µM in data set [1] (setting [20]); 2.22 ± 0.41 µM in data set [1] (setting [13]); 2.29 ± 0.42 µM in [2] (setting [21]); 21.5 ± 4.05 µM in data set [3] (setting [24]); 21.6 ± 4.99 µM in [3] (setting [25]). Besides, the IC50 is 18.8 ± 1.55 µM in data set [3] (setting [13]); 0.6 ± 0.08 µM in data set [4] (setting [26]); 1.41 ± 0.26 µM in [5] (setting [27]); 2.37 ± 0.41 µM in data set [6] (Homo sapiens, 72 h, read-out: IC50 ± SD). Moreover, in [1] (MTT, 72 h), the “fold lower sensitivity of J82 than J82 cisR” value was 8.4 fold. Besides, in data set [4] (MTT, 72 h), the “fold lower IC50 in T24 LTT than T24” value was 4 fold. Further, the “reduction of cell viability” value is given as “up to 20%” in data set [5] and 60–65% in [6]. For the same molecule, the bioavailability result in data set [8] is “limited”. For the same molecule, in data set [8], the half-life result was “very short”.
On to `Cc1sc2c(c1C)C(c1ccc(Cl)cc1)=N[C@@H](CC(=O)Nc1ccc(O)cc1)c1nnc(C)n1-2` [OTX015], for which the IC50 turned out to be 1.04 ± 0.13 µM in data set [1] (setting [19]), 18.9 ± 2.82 µM in data set [3] (setting [24]) and 1.98 ± 0.42 µM in data set [5] (setting [27]). Moreover, in data set [10], the dose-limiting toxicities result is “anemia, thrombocytopenia, fatigue, and hyperbilirubinemia”. Besides, the bioavailability entry in [8] is reported as “better”. Besides, in data set [8], the half-life result is on record as “extended”.
As to `Nc1ccccc1NC(=O)c1ccc(CNC(=O)OCc2cccnc2)cc1` [Entinostat, entinostat], the “Bim gene expression, decadic logarithm of normalized expression” value is reported as -0.015 in data set [7] and -0.110 in data set [9]. Further, the results for the “FOXO1 gene expression, decadic logarithm of normalized expression” value in data set [7] and in data set [9] were -0.054 and 0.087, respectively. In addition, the figures for the “FOXO3a gene expression, decadic logarithm of normalized expression” value in data set [7] and in data set [9] were -0.125 and -0.030, respectively. Besides, the “p53 gene expression, decadic logarithm of normalized expression” value in data set [7] is -0.125; in data set [9], -0.202. Also, the “survivin gene expression, decadic logarithm of normalized expression” value was -0.149 in [7] and -0.100 in [9]. Further, the SF in data set [1] (setting [17]) came to 1.45; in [1] (setting [18]) it was 1.97; in data set [3] (setting [22]) it was 1.44; in data set [3] (setting [23]), 1.68. The concentration for half-maximal inhibition (IC50) turned out to be 10.4 ± 0.94 µM in [1] (setting [19]); 9.38 ± 0.89 µM in data set [1] (setting [20]); 7.6 ± 0.59 µM in data set [1] (setting [13]); 5.68 ± 0.51 µM in data set [2] (setting [21]); 12.3 ± 1.08 µM in data set [3] (setting [24]); 9.59 ± 0.81 µM in [3] (setting [25]). The IC50 came to 10.4 ± 0.89 µM in data set [3] (setting [13]), 1.38 ± 0.1 µM in [4] (setting [26]), 4.47 ± 0.77 µM in [5] (setting [27]) and 1.45 ± 0.18 µM in data set [6] (setting [26]). The “reduction of cell viability” value was “up to 20%” in [5] and 60–65% in data set [6]. For the same molecule, the “p21 gene expression, decadic logarithm of normalized expression” value in [9] was determined as 0.049.
Take `Cc1sc2c(c1C)C(c1ccc(Cl)cc1)=NC(CC(=O)NCCCN1CCN(C)CC1)c1nnc(C)n1-2` (centres unmarked) [JQ35]: the values for the IC50 in data set [1] (setting [19]) and in data set [3] (setting [24]) were 1.49 ± 0.34 µM and 69.5 ± 7.88 µM, respectively. For the same molecule, the “fold-increased IC50 value compared to JQ1” value in data set [3] (J82, MTT, 72 h) worked out at 3.7 fold.
